According to patent publication US7906506B2, “Substituted chiral fused [1,2] imidazo [4,5-c] ring compounds and methods” (3M Innovative Properties Company, priority 2006, dated 2011):

| SMILES | melting point |
| --- | --- |
| CC1OC[C@H](C)n2c1nc1c(N)nc3ccccc3c12 (stereo partly drawn) [Example 1, (11S)-8,11-Dimethyl-10,11-dihydro-8H-[1,4]oxazino[4′,3′:1,2]imidazo[4,5-c]quinolin-6-amine] | 218 to 223 °C |
| CCCC1OC[C@H](C)n2c1nc1c(N)nc3ccccc3c12 (stereo partly drawn) [Example 2, (11S)-1-Methyl-8-propyl-10,11-dihydro-8H-[1,4]oxazino[4′,3′:1,2]imidazo[4,5-c]quinolin-6-amine] | 243 to 268 °C |
